Measurements published in US20150094376A1, “Hexamethonium Reverses the Lethal Cardiopulmonary Damages in a Rat Model of Brain Stem Lesions Mimicking Fatal Enterovirus 71 Encephalitis” (Kaohsiung Veterans General Hospital, priority 2013, published 2015).

Tests used:
Format in all cases: in vivo, Sprague Dawley rats
[1] = system: rats with bilateral 6-OHDA lesions of the NTS; assay: Epinephrine and norepinephrine levels by enzyme immunoassay in rats with 6-OHDA lesions
Procedure: (§1) The third set of experiments (intervention-treatment and control-treatment groups) was to infuse the ganglionic blocker (hexamethonium (Sigma), 25 mg/kg, iv) via the femoral vein at the time point of 10 minutes after NTS lesion to record BP and HR in trend (n=6 in each group) and the rats respectively were sacrificed at the time point (0, 3, 6 and 12 hours) for analyzing the parameters as discussed in the second set of experiments.
All blood samples were collected into micro-tubes and placed immediately into to an ice bath. The samples, then, were centrifuged at 10000 rpm for 20 minutes at 4° C. Aliquots of plasma were removed and stored at −80° C. until assayed for content of epinephrine and norepinephrine within four weeks utilizing enzyme immunoassay for the high-sensitive quantitative determination by Labor Diagnostika Nord-Medicrop Inc.

[2] = system: rats with bilateral 6-OHDA lesions of the NTS; assay: Pulmonary edema index and gross lung specimens in rats with 6-OHDA lesions; details: n=6 per group
Procedure: as §1
After the blood-sampled rats were sacrificed, the chest each of the rats was opened to remove the lung and the heart, and then the skull was opened for NTS tissue. To estimate the liquid accumulation in the lungs, both lungs were weighted, then dried in an oven at 80° C. for two days and weighted as dry lung weight. The total weight/body multiplies by 100 and wet-to-dry lung weight ratio were calculated for indicating the degree of pulmonary edema.

[3] = system: rats with bilateral 6-OHDA lesions of the NTS; assay: Lung histopathology and immunohistochemistry (H&E, PMN, connexin 43) in rats with 6-OHDA lesions; details: n=6 per group
Procedure: as §1
(§2) For hematoxylin and eosin staining, the rat brain, heart, and lungs were excised immediately after blood sampling. They were rinsed with saline, free from blood or fatty tissue, lightly blotted with filter paper, and then were placed in 10% formalin for five days and blocked, embedded in paraffin, cut in 4 μm sections, and stained with hematoxylin and eosin.
(§3) Immunohistochemical analysis (troponin T and brain natriuretic peptide in heart tissue, neutrophil cell in lung tissue, and connexin 43 assays in the lung and heart tissues) was performed on the sections after the paraffin was melted in an oven at 70° C. for one hour. The sections were deparaffinized, microwaved in citric buffer (10 mmol/L, pH 6.0), blocked in 3% goat serum, and incubated with anti-cardiac troponin T antibody (1:200; Abeam), anti-myosin VIIa antibody (1:200; Abeam), anti-brain natriuretic peptide polyclonal antibody (1:1000; Thermo Fisher Scientific Inc.), anti-neutrophil elastase antibody (1:400; Abeam), and anti-connexin 43/GJA1 antibody (1:200; Abcam) overnight at 4° C. Next, the sections were incubated with biotinylated secondary antibodies (1:200; Vector Laboratories, Burlingame, Calif., USA) for one hour and in AB complex (1:100) for 30 minutes at room temperature. The sections were visualized with a DAB substrate kit (Vector Laboratories) and counterstained with hematoxylin. The sections were then photographed with a microscope mounted with a charge-coupled device camera.

[4] = system: control rats with NTS microinjected with vehicle; assay: BP and HR recording in control-treatment group (vehicle injected into NTS, then hexamethonium); details: no 6-OHDA lesion; hexamethonium 25 mg/kg iv
From the text: Three sets of experiments were designed according to the three specific aims mentioned above. The first set of experiments was to establish a rat model by micro-injecting 6-hydroxydopamin (6-OHDA) into NTS leading to acute fulminating hypertension and pulmonary hemorrhagic edema. We recorded the blood pressure (BP) and heart rate (HR) in trend. Two groups of rats (n=6 in each group) were studied: 1) an intervention group in which 6-OHDA (Sigma, […]) dissolved in vehicle (0.8% ascorbic acid in saline) was injected into NTS bilaterally; and 2) a control group that received injections of equal volumes of vehicle alone. Each group of rats was anesthetized with urethane (1 g/kg, i.p.) and connected to oscillator circuits for BP and HR recording via […]. For microinjections into the NTS, the rats were anesthetized and placed in a stereotaxic frame; then the dorsal surface of the medulla was exposed. A glass cannula was filled with L-glutamate (0.154 mmol/60 n1) to functionally identify the NTS. […]

[5] = system: rats with bilateral 6-OHDA lesions of the NTS; assay: Echocardiography in rats with 6-OHDA lesions
Procedure: After the first set of the rat model was established, the second set of experiments intended to determine some time points for analysis. Rats were anesthetized with pentobarbital (50 mg/kg, ip) before NTS lesion. After surgery (lesion of the NTS), the wounds were closed and the rats were removed from the stereotaxic frame for further observation. Each rat was placed in a small cage and woken within 30 minutes for free activity. The rat were respectively sacrificed (intervention and control group, n=6 in each group) at different time point (0, 3 and 6 hours) for analyzing histopathology and biochemistry from blood, brain, heart and lung. Before sacrificing, echocardiography was performed to exanimate left ventricular (LV) wall thickness and cardiac function.
as §1
Rats were immobilized and shaved on the chest for echocardiographic examinations using commercially available equipment (Vivid 7, GE Ultrasound, Horten, Norway) equipped with 10-MHz phased array transducers. All the records were stored digitally as two-dimensional cine loops and analyzed with customized dedicated research software (Echo PAC, GE Ultrasound, Horten, Norway). Two-dimensionally guided M-mode recordings were obtained from the parasternal short-axis view at a depth of 2 cm at the level of the papillary muscles. M-Mode tracing were recorded at a speed of 200 mm/s. The measurements were made using the method of the American Society of Echocardiography and the parameters were measured digitally on the M-mode tracing and averaged from 5 consecutive cardiac cycles.

[6] = system: rats with bilateral 6-OHDA lesions of the NTS; assay: Heart histopathology and immunohistochemistry (H&E, troponin T, BNP, connexin 43) in rats with 6-OHDA lesions
Procedure: as §1, §2, §3

[7] = system: rats with bilateral 6-OHDA lesions of the NTS; assay: BP and HR recording and survival in rats with 6-OHDA lesions of the NTS (rat model mimicking fatal EV 71 encephalitis); details: for survival time after NTS lesion: n=6, 6-OHDA rats died within 7 hours
From the text: Three sets of experiments were designed according to the three specific aims mentioned above. The first set of experiments was to establish a rat model by micro-injecting 6-hydroxydopamin (6-OHDA) into NTS leading to acute fulminating hypertension and pulmonary hemorrhagic edema. We recorded the blood pressure (BP) and heart rate (HR) in trend. Two groups of rats (n=6 in each group) were studied: 1) an intervention group in which 6-OHDA (Sigma, […]) dissolved in vehicle (0.8% ascorbic acid in saline) was injected into NTS bilaterally; and 2) a control group that received injections of equal volumes of vehicle alone. Each group of rats was anesthetized with urethane (1 g/kg, i.p.) and connected to oscillator circuits for BP and HR recording via […]. For microinjections into the NTS, the rats were anesthetized and placed in a stereotaxic frame; then the dorsal surface of the medulla was exposed. A glass cannula was filled with L-glutamate (0.154 mmol/60 n1) to functionally identify the NTS.
as §1

What does the source list for `C[N+](C)(C)CCCCCC[N+](C)(C)C` [hexamethonium]?
level of epinephrine at 6 hours, 6-OHDA vs 6-OHDA+Hexamethonium ([1]; 6 hours): no significant differences; level of norepinephrine at 6 hours, 6-OHDA vs 6-OHDA+Hexamethonium ([1]; 6 hours): no significant differences; acute high rise of epinephrine serum level post 6-OHDA lesions ([1]; within 3 hours after hexamethonium treatment, FIG. 1D, n=6 per group): significantly lowered; acute high rise of norepinephrine serum level post 6-OHDA lesions ([1]; within 3 hours after hexamethonium treatment, FIG. 1E, n=6 per group): significantly lowered; mild and severe lung congestion (gross lungs) ([2]; 3 hours and 6 hours, FIG. 4A): prevented; increased wet-to-dry lung weight ratio (W/D) ([2]; 6 hours, FIG. 4B): reversed; increased total lung/body weight (BW) ([2]; 6 hours, FIG. 4C): reversed; increased infiltrates of red blood cells and formation of hyaline membrane in lung (H&E) ([3]; 3 hours and 6 hours, FIG. 5A): prevented; increased expressions of connexin 43 in lung ([3]; 3 hours and 6 hours, FIG. 5C): attenuated; increased infiltrates of PMN in lung ([3]; 6 hours, FIG. 5B): reduced; HR in control-treatment group [4]: no associated significant change in HR; mean blood pressure in control-treatment group [4]: significantly decreased; acute increase in fraction shortening ([5]; 3 hours): attenuated or reversed; decrease in the LV internal dimension in diastole and systole ([5]; 3 hours and 6 hours): reversed or attenuated; acute decrease in cardiac output after 6-OHDA lesions ([5]; 3 hours and 6 hours, FIG. 2E): prevented; acute increase in ejection fraction ([5]; 3 hours, FIG. 2F): attenuated or reversed; acute increase in LV wall thickness ([5]; 3 hours, FIGS. 2G and 2H): attenuated or reversed; increase of irregular wavy fibers with increased eosinophilic staining of the cytoplasm and contraction bands necrosis in heart (H&E) ([6]; 3 hours and 6 hours, FIG. 3A, n=6 per group): prevented; increased BNP staining in the cytoplasm (heart) ([6]; 3 hours and 6 hours, FIG. 3C, n=6 per group): reduced; increased and strong expressions of connexin 43 in heart muscle ([6]; 3 hours and 6 hours, FIG. 3D, n=6 per group): reduced; increased expression of cardiac troponin T ([6]; 6 hours, FIGS. 3B and 3E, n=4 per group): reduced; HR at 3 hours ([7]; 25 mg/kg iv 10 minutes after 6-OHDA lesion, 3 hours): no significant reduction in HR; HR immediately after hexamethonium ([7]; 25 mg/kg iv 10 minutes after 6-OHDA lesion, immediately): a reduction in HR; acute hypertension induced by 6-OHDA lesions ([7]; hexamethonium 25 mg/kg iv 10 minutes after NTS lesion, FIG. 1B): reversed; acute high rise in mean blood pressure (MBP) caused by 6-OHDA lesions ([7]; hexamethonium 25 mg/kg iv 10 minutes after NTS lesion, FIG. 1C, n=6 per group): significantly reversed; survival time after NTS lesion ([7]; hexamethonium 25 mg/kg iv 10 minutes after NTS lesion): at least 14 hours; survival time after NTS lesion ([7]; hexamethonium 25 mg/kg iv 10 minutes after NTS lesion, listed as Hexamethonium): more than 14 hours; labored breathing ([7]; hexamethonium 25 mg/kg iv 10 minutes after NTS lesion, up to 14 hours post NTS lesion): did not exhibit significantly labored breathing until 14 hours
